Experimental data taken from publication PMC1810525, “Antagonism of the prostaglandin D2 receptor CRTH2 attenuates asthma pathology in mouse eosinophilic airway inflammation” (Respiratory Research, 2007).

How the values were obtained:
AT2 = molecular target: T1, AT2 (Homo sapiens, UniProt P50052); assay: Profiling panel, radioligand binding AT2; conditions: 10 μM
T1 sequence (P50052 1-363): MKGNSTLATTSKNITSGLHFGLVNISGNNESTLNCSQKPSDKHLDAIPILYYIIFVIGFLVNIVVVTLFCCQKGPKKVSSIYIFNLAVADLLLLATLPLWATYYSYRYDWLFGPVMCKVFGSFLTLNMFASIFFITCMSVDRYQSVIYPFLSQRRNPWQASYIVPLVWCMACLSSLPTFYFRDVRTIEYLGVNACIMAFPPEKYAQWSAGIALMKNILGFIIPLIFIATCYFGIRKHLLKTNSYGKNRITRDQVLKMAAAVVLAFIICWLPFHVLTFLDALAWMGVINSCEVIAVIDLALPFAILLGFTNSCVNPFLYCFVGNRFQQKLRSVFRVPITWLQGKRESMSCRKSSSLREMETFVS
Protocol: (§2) All assays were performed using recombinant human receptors and enzymes, and included the appropriate controls for assay validation. Enzymatic and binding assays, except for muscarinic binding, were performed by CEREP in vitro pharmacology profiling services. […] For stimulation of C3a, C5a, and ChemR23 receptors in InsP assays the following agonists were used: human recombinant C3a (C3a receptor), human recombinant C5a (C5a receptor), and the nonapeptide Chemerin (ChemR23).

BLT1 = BLT1 (Homo sapiens, UniProt Q15722); assay: Profiling panel, radioligand binding BLT1; conditions: 10 μM
BLT1, sequence (Q15722 whole entry): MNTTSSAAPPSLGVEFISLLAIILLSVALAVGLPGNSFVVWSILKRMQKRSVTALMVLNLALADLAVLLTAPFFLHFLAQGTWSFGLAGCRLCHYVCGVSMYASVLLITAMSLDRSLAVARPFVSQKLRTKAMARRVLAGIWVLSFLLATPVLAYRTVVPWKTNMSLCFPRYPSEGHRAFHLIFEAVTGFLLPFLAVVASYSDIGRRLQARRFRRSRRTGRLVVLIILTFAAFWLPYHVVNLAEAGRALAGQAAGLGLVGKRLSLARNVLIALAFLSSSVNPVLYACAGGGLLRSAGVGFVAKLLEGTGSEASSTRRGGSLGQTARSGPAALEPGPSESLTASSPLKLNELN
Protocol: as §2

ChemR23 = molecular target: T2, ChemR23 (Homo sapiens, UniProt Q99788); assay: Profiling panel, functional InsP ChemR23; assay type: cell-based; conditions: 10 μM
T2 sequence (Q99788 1-373): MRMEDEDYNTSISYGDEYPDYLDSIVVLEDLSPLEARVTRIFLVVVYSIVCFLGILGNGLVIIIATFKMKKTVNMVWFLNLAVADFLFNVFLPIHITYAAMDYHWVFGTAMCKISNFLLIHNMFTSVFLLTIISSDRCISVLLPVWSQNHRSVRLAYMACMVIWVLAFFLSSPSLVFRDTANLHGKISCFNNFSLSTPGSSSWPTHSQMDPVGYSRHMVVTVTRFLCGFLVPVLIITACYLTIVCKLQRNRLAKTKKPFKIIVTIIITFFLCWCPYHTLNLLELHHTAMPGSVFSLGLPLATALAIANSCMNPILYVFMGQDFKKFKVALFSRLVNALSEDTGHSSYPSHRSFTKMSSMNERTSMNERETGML

CXCR2 = molecular target: T3, CXCR2 (Homo sapiens, UniProt P25025); assay: Profiling panel, radioligand binding CXCR2; conditions: 10 μM
T3 sequence (P25025 1-360): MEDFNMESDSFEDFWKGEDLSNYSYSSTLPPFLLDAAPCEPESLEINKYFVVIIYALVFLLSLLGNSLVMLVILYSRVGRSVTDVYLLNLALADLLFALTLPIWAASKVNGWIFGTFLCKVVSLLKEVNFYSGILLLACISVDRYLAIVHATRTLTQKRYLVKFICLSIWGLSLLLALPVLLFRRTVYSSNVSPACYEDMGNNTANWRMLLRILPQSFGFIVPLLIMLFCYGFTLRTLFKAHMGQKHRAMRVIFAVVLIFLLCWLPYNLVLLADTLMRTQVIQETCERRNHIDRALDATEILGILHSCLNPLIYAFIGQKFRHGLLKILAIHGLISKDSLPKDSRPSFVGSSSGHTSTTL
Protocol: as §2

Glucocorticoid = molecular target: T4, Glucocorticoid (Homo sapiens, UniProt P04150); assay: Profiling panel, radioligand binding Glucocorticoid; conditions: 10 μM
T4 sequence (P04150 1-777): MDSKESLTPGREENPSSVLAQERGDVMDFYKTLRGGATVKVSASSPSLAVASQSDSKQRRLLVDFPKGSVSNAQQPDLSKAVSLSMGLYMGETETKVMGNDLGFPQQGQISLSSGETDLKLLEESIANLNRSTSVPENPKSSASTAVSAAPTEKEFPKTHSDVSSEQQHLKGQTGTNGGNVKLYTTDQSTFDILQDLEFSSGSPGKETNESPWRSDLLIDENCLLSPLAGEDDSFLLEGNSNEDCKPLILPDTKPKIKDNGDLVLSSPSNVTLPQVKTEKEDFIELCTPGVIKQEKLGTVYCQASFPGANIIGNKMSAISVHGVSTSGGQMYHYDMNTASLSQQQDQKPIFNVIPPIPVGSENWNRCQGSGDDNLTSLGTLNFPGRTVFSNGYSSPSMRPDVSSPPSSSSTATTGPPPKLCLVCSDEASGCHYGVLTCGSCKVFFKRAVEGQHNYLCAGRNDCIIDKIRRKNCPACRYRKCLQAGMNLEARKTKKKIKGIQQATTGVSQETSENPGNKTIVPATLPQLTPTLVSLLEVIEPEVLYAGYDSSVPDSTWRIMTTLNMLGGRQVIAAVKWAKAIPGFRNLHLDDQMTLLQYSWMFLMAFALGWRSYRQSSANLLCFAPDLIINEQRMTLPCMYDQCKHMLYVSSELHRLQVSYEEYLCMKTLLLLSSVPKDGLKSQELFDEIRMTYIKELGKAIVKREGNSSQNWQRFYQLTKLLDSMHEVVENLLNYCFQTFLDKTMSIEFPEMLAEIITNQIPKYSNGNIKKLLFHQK
Protocol: as §2

[1] = molecular target: Muscarinic (M2-selective) (Sus scrofa, UniProt P06199); conditions: 10 μM, binding, porcine heart membranes
Muscarinic (M2-selective), sequence (P06199 whole entry): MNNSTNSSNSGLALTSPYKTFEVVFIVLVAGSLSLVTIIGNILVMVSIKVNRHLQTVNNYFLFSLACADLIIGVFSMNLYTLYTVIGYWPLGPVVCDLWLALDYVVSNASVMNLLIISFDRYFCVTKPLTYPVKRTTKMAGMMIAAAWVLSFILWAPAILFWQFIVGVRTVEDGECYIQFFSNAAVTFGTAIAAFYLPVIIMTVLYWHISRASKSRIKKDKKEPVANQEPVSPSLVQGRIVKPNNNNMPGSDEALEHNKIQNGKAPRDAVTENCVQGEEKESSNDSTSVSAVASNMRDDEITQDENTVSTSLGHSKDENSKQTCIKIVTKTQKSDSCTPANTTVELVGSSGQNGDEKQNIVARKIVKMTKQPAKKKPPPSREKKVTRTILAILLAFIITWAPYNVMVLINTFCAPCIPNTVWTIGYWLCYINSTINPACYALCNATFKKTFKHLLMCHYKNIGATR
Protocol: (§1) TM30089 was tested at a final concentration of 10 μM in either binding or functional assays on several 7TM receptors, and in enzymatic assays on selected enzymes including those involved in arachidonic acid metabolism. All assays were performed using recombinant human receptors and enzymes, and included the appropriate controls for assay validation. Enzymatic and binding assays, except for muscarinic binding, were performed by CEREP in vitro pharmacology profiling services. Full description of methods and references is available on the CEREP Web site. […] Functional assays were performed using recombinant human receptors and enzymes, and included the appropriate controls for C3a, C5a, ChemR23 receptors by determining the inhibitory potency of TM30089 in InsP assays essentially as described above. For stimulation of C3a, C5a, and ChemR23 receptors in InsP assays the following agonists were used: human recombinant C3a (C3a receptor), human recombinant C5a (C5a receptor), and the nonapeptide Chemerin (ChemR23).

[2] = tested on: Muscarinic (non-selective); conditions: 10 μM, binding, mouse brain homogenate
Protocol: as §1

Phospholipase A2 = conditions: 10 μM, enzymatic
Protocol: as §1

mCRTH2 = molecular target: mCRTH2; set-up: method as in PMID 15563582; conditions: obtained by others in the same expression system; read-out: reported Ki value mCRTH2; cited from earlier work

Compound | % of control AT2 (AT2) [%] | % of control BLT1 (BLT1) [%] | % of control ChemR23 (ChemR23) [%] | % of control CXCR2 (CXCR2) [%] | % of control Glucocorticoid (Glucocorticoid) [%] | % of control Muscarinic (M2-selective) [1] [%] | % of control Muscarinic (non-selective) [2] [%] | % of control Phospholipase A2 (Phospholipase A2) [%] | Ki (mCRTH2) [nM]
CN(C1CCc2c(c3ccccc3n2CC(=O)O)C1)S(=O)(=O)c1ccc(F)cc1 (stereo not drawn) [TM30089] | 98.1 ± 1.4 | 89.3 ± 3.5 | 96.6 ± 1.6 | 104.6 ± 6.1 | 98.9 ± 11.3 | 97.5 ± 1.9 | 106.7 ± 8.5 | 101.5 ± 1.0 | 
O=C(O)CCn1c2c(c3ccccc31)C[C@H](NS(=O)(=O)c1ccc(F)cc1)CC2 [ramatroban, reference compound] |  |  |  |  |  |  |  |  | 28
